In article PMC8929364, “Metopimazine is primarily metabolized by a liver amidase in humans” (Pharmacology Research & Perspectives, 2021):

Columns and labels:
[1] = Incubation of MPZ in human intestine S9; assay type: in vitro ADME; details: 2.5 µM MPZ, human intestine S9 1 mg/ml, NADPH, 60 min
Method: (§1) An initial experiment was conducted with S9 fractions from liver and intestine to assess the role of liver and intestinal enzymes in the metabolism of MPZ. The reaction mixture contained 2.5 µM MPZ, pooled human liver or intestine S9 fraction (1 mg/ml S9 protein), 100 mM KPi buffer (pH 7.4). The reaction mixture was pre‐incubated for 3–5 min at 37°C in a humidified incubator filled with 5% CO2 followed by the addition of NADPH (1 mM) to initiate the reaction. The reaction was incubated for 0 and 60 min. The total percentage of organic solvent in the incubation mixture was ≤0.1%. The reactions were terminated by the addition of sample mixture of acetonitrile and ethanol (90:10, v/v). The positive control substrate, 7‐EC, was incubated in triplicate in an identical manner as MPZ for S9 fractions.
(§2) The degree of disappearance of each analyte was evaluated by comparing the PAR of analyte to IS or concentration in different sampling time points to the PAR of time zero, (t = 0, 100%). The percent of parent remaining values were calculated according to the following equation: %parentremaining=(meanconcentrationorPARateachsamplingtimepoint/meanconcentrationorPARoftimezero)×100

[2] = Incubation of MPZ in human liver S9; assay type: in vitro ADME; details: 2.5 µM MPZ, human liver S9 1 mg/ml, NADPH, 60 min
Method: as §1, §2

rhFMO5 = target: T1, rhFMO5 (Homo sapiens, UniProt P49326); assay: Incubation of MPZ with recombinant FMO: FMO5; assay type: in vitro ADME; details: 1 µM MPZ, pH 8.4
T1 construct: purchased Corning Inc
T1 sequence (P49326 1-533): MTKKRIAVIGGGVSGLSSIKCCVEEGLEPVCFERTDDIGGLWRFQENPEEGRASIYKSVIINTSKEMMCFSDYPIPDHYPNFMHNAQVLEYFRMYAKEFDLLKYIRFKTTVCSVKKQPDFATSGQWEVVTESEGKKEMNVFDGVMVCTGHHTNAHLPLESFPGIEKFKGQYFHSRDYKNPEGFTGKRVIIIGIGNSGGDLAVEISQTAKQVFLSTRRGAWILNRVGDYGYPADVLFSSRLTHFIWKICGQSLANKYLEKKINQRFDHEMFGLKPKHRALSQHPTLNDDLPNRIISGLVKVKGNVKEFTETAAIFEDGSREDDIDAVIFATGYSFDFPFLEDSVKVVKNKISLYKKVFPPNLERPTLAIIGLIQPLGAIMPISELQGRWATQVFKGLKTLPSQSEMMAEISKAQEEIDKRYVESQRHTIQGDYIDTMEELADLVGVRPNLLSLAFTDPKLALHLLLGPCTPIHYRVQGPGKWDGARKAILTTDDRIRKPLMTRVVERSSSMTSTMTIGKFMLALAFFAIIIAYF
Method: (§3) MPZ at 1.0 µM was incubated in triplicate with individual recombinant FMO (Supersomes™ for FMO 1, FMO3, and FMO5). Protein concentrations for all rFMO isoforms were 0.05 mg/ml. A positive control (benzydamine, 100 µM) was incubated for 20 min. The reaction mixture containing MPZ or FMO substrate, KPi buffer (pH 8.4), and FMO Supersomes™ was pre‐incubated at 37°C for 3–5 min. All other procedures were the same as described previously. The negative control reactions were incubated absence of NADPH.

rhFMO1 = target: T2, rhFMO1 (Homo sapiens, UniProt Q01740); assay: Incubation of MPZ with recombinant FMO: FMO1; assay type: in vitro ADME; details: 1 µM MPZ, pH 8.4
T2 construct: purchased Corning Inc
T2 sequence (Q01740 1-532): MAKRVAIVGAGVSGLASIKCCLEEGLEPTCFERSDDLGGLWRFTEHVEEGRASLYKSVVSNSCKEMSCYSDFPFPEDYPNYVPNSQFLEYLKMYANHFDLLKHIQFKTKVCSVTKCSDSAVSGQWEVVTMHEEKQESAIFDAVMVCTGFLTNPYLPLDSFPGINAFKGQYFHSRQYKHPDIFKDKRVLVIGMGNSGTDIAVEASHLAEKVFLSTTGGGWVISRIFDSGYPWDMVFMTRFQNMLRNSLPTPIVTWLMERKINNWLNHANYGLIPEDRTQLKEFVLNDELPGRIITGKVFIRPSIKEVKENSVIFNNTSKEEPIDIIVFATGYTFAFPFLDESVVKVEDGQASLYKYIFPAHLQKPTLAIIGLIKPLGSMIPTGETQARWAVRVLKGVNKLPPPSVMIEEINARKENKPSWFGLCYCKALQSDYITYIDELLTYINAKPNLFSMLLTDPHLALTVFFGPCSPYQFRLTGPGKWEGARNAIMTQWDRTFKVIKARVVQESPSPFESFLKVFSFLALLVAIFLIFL
Method: as §3

[3] = Incubation of MPZ with human kidney microsomes (HKM); assay type: in vitro ADME; details: pH 8.4, NADPH, HKM 0.5 mg/ml, 60 min
Method: MPZ, at 1.0 and 10.0 µM, was incubated with HLM or HKM to determine the contribution of microsomal FMOs on the metabolism of MPZ.
A reaction mixture containing KPi buffer (pH 8.4), HLM or HKM (0.5 mg/ml protein) and MPZ (1.0 and 10.0 µM) was pre‐incubated for 3–5 min at 37°C. The reaction was initiated by the addition of NADPH into the reaction mixture. The reaction was conducted for 0 and 60 min. A positive control (benzydamine, 100 µM) was incubated in duplicate for 0 and 20 min. Parallel incubation was conducted by adding 1 mM methimazole, a non‐specific FMO inhibitor, under identical conditions. Heat‐inactivated microsomes (50°C for at least 5 min) was incubated under identical conditions negative control. All other procedures were the same as described previously.

[4] = test system: human liver microsomal amidase; assay: Incubations with heat-treated HLM for microsomal hydrolase/amidase activity, with and without BNPP; assay type: in vitro ADME; details: 10 µM MPZ, pH 7.4, 8.4 and 9.4, 60 min
Method: Prior to the reaction for amidase activity, the reaction mixture containing KPi buffer (pH 7.4, 8.4, or 9.4) and HLM was pre‐incubated at 50°C for 5 min to inactivate CYP and FMO activities in HLM. The mixture was placed on ice to cool down. An aliquot was taken out which was considered as t = 0 min incubation. Then 10 µM MPZ was added into the remaining mixture and incubated at 37°C on an orbital shaker for 60 min. A parallel set of incubations was conducted with 10 µM MPZ in the presence at 2 and 16 µM, of BNPP (a known inhibitor of amidase). All reactions were in triplicate. The total percentage of organic solvent in the incubation mixture was ≤0.1%. The reactions were terminated by the addition of chilled acetonitrile: methanol, 90:10, (v/v). The samples were vortex‐mixed and stored at ≤−70°C and were subjected analyzed by LC–MS/MS.

human D2 receptor = test system: human D2 receptor; set-up: method as in earlier work; details: cited from earlier work

Compound | metabolism in human intestine S9 [1] | percent of MPZ disappeared [2] | metabolism by rhFMO5 (rhFMO5) | metabolism by rhFMO1 (rhFMO1) | metabolite formation in HKM [3] | pH dependence of MPZA formation in HLM [4] | fold less potent at the human D2 receptor compared to the parent (human D2 receptor)
CS(=O)(=O)c1ccc2c(c1)N(CCCN1CCC(C(N)=O)CC1)c1ccccc1S2 [MPZ, metopimazine] | virtually no metabolism | approximately 30% | did not metabolize MPZ | did not metabolize MPZ | did not produce any metabolites |  | 
CS(=O)(=O)c1ccc2c(c1)N(CCCN1CCC(C(=O)O)CC1)c1ccccc1S2 [MPZA, metopimazine acid] |  |  |  |  |  | faster the higher the pH | about 200 fold
